Measurements from PubChem BioAssay AID624382 (Sanford-Burnham Center for Chemical Genomics, 2012).
Calls of active or inactive are those of the source. How the calls were made is not given here.

molecular target: Small ubiquitin-related modifier 1 (Homo sapiens) (UniProt P63165); assay: inhibitors of SUMO1 peptide binding, dose response, biochemical, fluorescence polarization, uHTS hits (AID 624382)
Sequence (P63165 whole entry, looked up): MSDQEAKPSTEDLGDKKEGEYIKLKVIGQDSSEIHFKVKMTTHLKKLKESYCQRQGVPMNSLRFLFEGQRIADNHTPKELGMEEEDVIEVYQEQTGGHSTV

SMILES	IC50
C=Cc1c(C)c2cc3[nH]c(cc4nc(cc5nc(cc1[nH]2)C(C)=C5CCC(=O)O)C(CCC(=O)O)=C4C)c(C)c3C=C	> 66.6 µM (inactive)
CCN(CC)P(=O)(NC(=O)C(Cl)(Cl)Cl)N(CC)CC.[Cl-].[Cl-].[Cl-].[Nd+3]	> 66.6 µM (inactive)
C[c-]1[c-](C)[c-](C)[c-](C)[c-]1C.[Fe].c1cc2nccc(N3CCCC3)[c-]2c1 (stereo not drawn)	11.9 µM
